Experimental data taken from ChEMBL document CHEMBL1221331, “Discovery of biphenylketones as dual modulators of inflammation and bone loss” (Bioorg Med Chem Lett, 2010).
Activity calls are given as the source filed them. No cut-off for these calls is given here.

What was measured:
J774 = assay: Cytotoxicity against mouse J774 cells expressing RANKL signaling by Alamar blue assay; assay type: functional, cell-based
[1] = Cytotoxicity against mouse osteoclast cells expressing RANKL signaling by Alamar blue assay; assay type: functional, cell-based
[2] = Cytotoxicity against mouse osteoblast cells by alamar blue assay; assay type: cell-based
[3] = Inhibition of NFkappa signaling in mouse macrophages assessed as reduction in TNF-alpha-induced IkapppaB phosphorylation at 10 uM pretreated for 1 hr before TNFalpha challenge by Western blotting
[4] = target: T1, Tumor necrosis factor ligand superfamily member 11 (Mus musculus) (UniProt O35235); assay: Inhibition of NFkappa signaling in mouse macrophages assessed as reduction in RANKL-induced IkapppaB phosphorylation at 10 uM pretreated for 1 hr before RANKL challenge by Western blotting
T1 sequence (whole entry): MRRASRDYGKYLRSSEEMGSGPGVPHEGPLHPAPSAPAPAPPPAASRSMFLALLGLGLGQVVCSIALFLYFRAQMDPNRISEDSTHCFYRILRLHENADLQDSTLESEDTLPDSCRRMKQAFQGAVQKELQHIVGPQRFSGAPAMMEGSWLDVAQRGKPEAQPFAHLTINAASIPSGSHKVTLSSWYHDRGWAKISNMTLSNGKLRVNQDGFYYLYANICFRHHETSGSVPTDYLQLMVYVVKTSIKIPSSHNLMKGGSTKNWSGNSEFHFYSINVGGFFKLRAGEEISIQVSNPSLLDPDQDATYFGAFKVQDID

Mus musculus [5] = assay: Effect on ovariectomy-induced bone loss in mouse assessed as reduction in trabecular bone mineral density at 20 mg/kg/day, po (reference value: bone mineral density loss = 34%); assay type: functional, Trabecula; parameters: scale not given: the % may be the effect or the level left
Mus musculus [6] = assay: Antiarthritic activity in mouse assessed as inhibition of collagen-induced arthritis at 10 mg/kg/day, po administered 15 days post collagen challenge; assay type: functional, organism-based
Mus musculus [7] = assay: Antiarthritic activity in mouse assessed as inhibition of collagen-induced arthritis at 10 mg/kg/day, ip administered 15 days post collagen challenge; assay type: functional, organism-based
Mus musculus [8] = assay: Anti-resorptive activity against ovariectomy-induced bone loss in mouse assessed as increase in trabecular bone mineral density at 20 mg/kg/day, po relative to untreated control; assay type: functional, Trabecula
[9] = Inhibition of NFkappa signaling in mouse macrophages assessed as reduction in TNF-alpha-induced IkapppaB phosphorylation at 50 uM pretreated for 1 hr before TNFalpha challenge by Western blotting
[10] = target: T1, Tumor necrosis factor ligand superfamily member 11 (Mus musculus); assay: Inhibition of NFkappa signaling in mouse macrophages assessed as reduction in RANKL-induced IkapppaB phosphorylation at 50 uM pretreated for 1 hr before RANKL challenge by Western blotting

Structure (SMILES) | IC50 (J774) [µM] | also measured
OCCCCCC(O)c1ccc(-c2ccc(OC(F)(F)F)cc2)cc1 (stereo not given) | 14 | –
OCCCCCC(O)c1ccc(-c2ccc(Cl)cc2)cc1 (stereo not given) | 17 | –
CN(C)c1ccc(-c2ccc(C(O)CCCCCO)cc2)cc1 (stereo not given) | 28 | –
COc1cc(F)ccc1-c1ccc(C(O)CCCCCO)cc1 (stereo not given) | 70 | –
O=C(CCCCCO)c1ccc(-c2ccc(F)c(F)c2)cc1 | 20 | –
OCCCCCC(O)c1ccc(-c2ccc(F)cc2)cc1F (stereo not given) | 14 | –
O=C(CCCCCO)c1ccc(-c2ccc(Cl)cc2Cl)cc1 | 8 | IC50 [1]: 0.8 µM; IC50 [2]: > 100 µM; inhibition [3]: Active; inhibition [4]: Active; Activity (Mus musculus [5]): -6%; inhibition (Mus musculus [6]): Active; inhibition (Mus musculus [7]): Active; Activity (Mus musculus [8]): 6%
Cc1cc(F)ccc1-c1ccc(C(O)CCCCCO)cc1 (stereo not given) | 20 | –
COc1ccc(-c2ccc(C(=O)CCCCCO)cc2)cc1OC | 60 | IC50 [1]: 14 µM
Cc1cc(-c2ccc(F)cc2F)ccc1C(=O)CCCCCO | 4 | –
Cc1ccccc1-c1ccc(C(O)CCCCCO)cc1 (stereo not given) | 24 | –
CSc1ccc(-c2ccc(C(O)CCCCCO)cc2)cc1 (stereo not given) | 24 | –
Cc1cc(C(=O)CCCCCO)ccc1-c1ccc(F)cc1F | 8 | IC50 [1]: 1.5 µM; inhibition [3]: Active; inhibition [4]: Active; inhibition (Mus musculus [6]): Active
OCCCCCC(O)c1ccc(-c2ccc(C(F)(F)F)cc2)cc1 (stereo not given) | 13 | –
OCCCCCC(O)c1ccc(-c2cccc(Cl)c2)cc1 (stereo not given) | > 100 | –
COc1ccc(-c2ccc(C(=O)CCCCCO)cc2)c(OC)c1 | 50 | IC50 [1]: 13 µM
OCCCCCC(O)c1ccc(-c2ccccc2)cc1 (stereo not given) | 22 | IC50 [1]: 8 µM; IC50 [2]: > 100 µM
OCCCCCC(O)c1ccc(-c2ccc(F)cc2)cc1 (stereo not given) | 18 | –
Cc1cccc(-c2ccc(C(O)CCCCCO)cc2)c1 (stereo not given) | > 100 | –
OCCCCCC(O)c1ccc(-c2ccc(O)cc2)cc1 (stereo not given) | 15 | –

Structure (SMILES) | IC50 (J774) [µM] | also measured
O=C(CCCCCO)c1ccc(-c2ccc(F)cc2F)cc1Cl | 7 | IC50 [1]: 3 µM; IC50 [2]: > 100 µM; Activity (Mus musculus [8]): -3%
Cc1ccc(-c2ccc(C(O)CCCCCO)cc2)cc1 (stereo not given) | 22 | –
O=C(CCCCCO)c1ccc(-c2ccccc2)cc1 | 22 | IC50 [1]: 9 µM; IC50 [2]: > 100 µM; Activity (Mus musculus [5]): 21%
OCCCCCC(O)c1ccc(-c2ccccc2O)cc1 (stereo not given) | 40 | –
Cc1cc(F)ccc1-c1ccc(C(=O)CCCCCO)cc1 | 20 | –
O=C(CCCCCO)c1ccc(-c2ccc(F)cc2Cl)cc1 | 15 | –
Cc1cccc(-c2ccc(C(=O)CCCCCO)cc2)c1 | 100 | inhibition [9]: inactive; inhibition [10]: inactive
OCCCCCC(O)c1ccc(-c2ccccc2F)cc1 (stereo not given) | 22 | –
OCCCCCC(O)c1ccc(-c2ccc(F)cc2)cc1Cl (stereo not given) | 8 | –
Cc1cc(C(O)CCCCCO)ccc1-c1ccc(F)cc1F (stereo not given) | 8 | IC50 [1]: 1.3 µM; IC50 [2]: > 100 µM
O=C(CCCCCO)c1ccc(-c2ccc(F)cc2F)cc1 | 6 | IC50 [1]: 2 µM; IC50 [2]: > 100 µM; Activity (Mus musculus [5]): 10%
OCCCCCC(O)c1ccc(-c2ccc(F)cc2F)cc1 (stereo not given) | 8 | –
OCCCCCCc1ccc(-c2ccccc2)cc1 | – | inhibition [3]: inactive; inhibition [9]: inactive; inhibition [10]: inactive
Cc1cc(S(=O)(=O)NCCCCO)ccc1-c1ccc(F)cc1F | – | inhibition (Mus musculus [6]): Active
CCOc1ccc(-c2ccc(C(O)CCCCCO)cc2)cc1 (stereo not given) | 14 | –
OCCCCCC(O)c1ccc(-c2ccc(Cl)cc2Cl)cc1 (stereo not given) | 8 | –
O=C(CCCCCO)c1ccc(-c2ccc(C(F)(F)F)cc2C(F)(F)F)cc1 | 23 | –
OCCCCCC(O)c1ccc(-c2ccccc2)c(F)c1 (stereo not given) | 17 | –
OCCCCCC(O)c1ccc(-c2ccc(Br)cc2)cc1 (stereo not given) | 20 | –
